Source: patent publication US9879023B2, “Therapeutic compounds” (Gilead Sciences, Inc., priority 2011, dated 2018)

test system: HIV-IIIb (MT-4 cells); experiment: Test A: Antiviral Assays in MT4 Cells; assay type: cell-based; settings: Human immunodeficiency virus 1, IIIB, MT4, 120 h, MT-4 cells infected with HIV-IIIb (0.004 m.o.i.), 5 days incubation, CellTiter-Glo readout; read-out: EC50
Experimental: Test A: Antiviral Assays in MT4 Cells
For the antiviral assay utilizing MT-4 cells, 0.4 μL of […] test concentration of 3-fold serially diluted compound in DMSO was added to 40 μL of cell growth medium (RPMI 1640, 10% FBS, 1% penicilline/Streptomycine, 1% L-Glutamine, 1% HEPES) in each well of 384-well assay plates (10 concentrations) in quadruplicate.
1 mL aliquots of 2×10e6 MT-4 cells are pre-infected for 1 and 3 hrs respectively, @37° C. with 25 uL (MT4) or of either cell growth medium (mock-infected) or a fresh 1:250 dilution of an HIV-IIIb concentrated ABI stock (0.004 m.o.i. for MT4 cells). Infected and uninfected cells are diluted in cell growth medium and 35 uL of 2000 (for MT4) cells is added to each well of the assay plates.
Assay plates were then incubated in a 37° C. incubator. After 5 days of incubation, 25 μl of 2× concentrated CellTiter-Glo™ Reagent (catalog # G7573, Promega Biosciences, Inc., Madison, Wis.) was added to each well of the assay plate. Cell lysis was carried out by incubating at room temperature for 2-3 min and then chemiluminescence was read using the Envision reader (PerkinElmer). […]

| Compound | EC50 [µM] |
| --- | --- |
| CNC(=O)c1nc2cc(C)c([C@H](OC(C)(C)C)C(=O)O)c(-c3ccc4c5c(ccnc35)CCO4)c2s1 (atropisomer, axis not shown) [Compound 97, (S)-2-tert-butoxy-2-((S)-7-(2,3-dihydropyrano[4,3,2-de]quinolin-7-yl)-5-methyl-2-(methylcarbamoyl)benzo[d]thiazol-6-yl)acetic acid] | 1.24 |
| Cc1cc2nc(C(=O)NCCc3ccccc3)sc2c(-c2ccc3c4c(ccnc24)CCO3)c1[C@H](OC(C)(C)C)C(=O)O (atropisomer, axis not shown) [Compound 98, (S)-2-tert-butoxy-2-((S)-7-(2,3-dihydropyrano[4,3,2-de]quinolin-7-yl)-5-methyl-2-(phenethylcarbamoyl)benzo[d]thiazol-6-yl)acetic acid] | 2.51 |
| COc1ccc(CNC(=O)c2nc3cc(C)c([C@H](OC(C)(C)C)C(=O)O)c(-c4ccc5c6c(ccnc46)CCO5)c3s2)cc1 (atropisomer, axis not shown) [Compound 99, (S)-2-tert-butoxy-2-((S)-7-(2,3-dihydropyrano[4,3,2-de]quinolin-7-yl)-2-(4-methoxybenzylcarbamoyl)-5-methylbenzo[d]thiazol-6-yl)acetic acid] | 0.56 |
| Cc1cc2ncsc2c(-c2ccc(Cl)cc2)c1[C@H](OC(C)(C)C)C(=O)O [Compound 5L, (S)-2-tert-butoxy-2-(7-(4-chlorophenyl)-5-methylbenzo[d]thiazol-6-yl)acetic acid] | 2.95 |
| Cc1nc2cc(C)c([C@H](OC(C)(C)C)C(=O)O)c(-c3ccc(Cl)cc3)c2s1 [Compound 7, (S)-2-tert-butoxy-2-(7-(4-chlorophenyl)-2,5-dimethylbenzo[d]thiazol-6-yl)acetic acid] | 0.257 |
| Cc1cc2nc(CC(C)C)sc2c(-c2ccccc2)c1[C@H](OC(C)(C)C)C(=O)O [Compound 8K, (S)-2-tert-butoxy-2-(2-isobutyl-5-methyl-7-phenylbenzo[d]thiazol-6-yl)acetic acid] | 0.641 |
| CCc1nc2cc(C)c([C@H](OC(C)(C)C)C(=O)O)c(-c3ccc(Cl)cc3)c2s1 [Compound 9] | 0.118 |
| Cc1cc2nc(C3CC3)sc2c(-c2ccc(Cl)cc2)c1[C@H](OC(C)(C)C)C(=O)O [Compound 10] | 0.121 |
| Cc1cc2nc(N(C)C)sc2c(-c2ccc(Cl)cc2)c1[C@H](OC(C)(C)C)C(=O)O [Compound 12] | 0.113 |
| Cc1cc2nc(C#CC3CC3)sc2c(-c2ccc(Cl)cc2)c1[C@H](OC(C)(C)C)C(=O)O [Compound 14] | 0.718 |
| Cc1cc2nc(C(=O)C3=CCC3)sc2c(-c2ccc(Cl)cc2)c1[C@H](OC(C)(C)C)C(=O)O [Compound 14b] | 0.48 |
| Cc1cc2nc(C3CC3)sc2c(-c2ccc3c4c(ccnc24)CCO3)c1[C@H](OC(C)(C)C)C(=O)O [Compound 22, (S)-2-tert-butoxy-2-((R)-2-cyclopropyl-7-(2,3-dihydropyrano[4,3,2-de]quinolin-7-yl)-5-methylbenzo[d]thiazol-6-yl)acetic acid] | 0.17 |

same assay, conditions: MT-4 cells infected with HIV-IIIb (0.004 m.o.i.), 5 days incubation, CellTiter-Glo readout; read-out: EC50

| Compound | EC50 [µM] |
| --- | --- |
| Cc1cc2nc(C3CC3)sc2c(-c2ccc3c4c(ccnc24)CCO3)c1[C@H](OC(C)(C)C)C(=O)O [Compound 21, (S)-2-tert-butoxy-2-((S)-2-cyclopropyl-7-(2,3-dihydropyrano[4,3,2-de]quinolin-7-yl)-5-methylbenzo[d]thiazol-6-yl)acetic acid] | 0.0149 |
| Cc1cc2nc(N3CCC3)sc2c(-c2ccc3c4c(ccnc24)CCO3)c1[C@H](OC(C)(C)C)C(=O)O [Compound 35, (S)-2-((S)-2-(azetidin-1-yl)-7-(2,3-dihydropyrano[4,3,2-de]quinolin-7-yl)-5-methylbenzo[d]thiazol-6-yl)-2-tert-butoxyacetic acid] | 0.0127 |
| Cc1cc2nc(N3CCC3)sc2c(-c2ccc3c4c(ccnc24)CCO3)c1[C@H](OC(C)(C)C)C(=O)O [Compound 36, (S)-2-((R)-2-(azetidin-1-yl)-7-(2,3-dihydropyrano[4,3,2-de]quinolin-7-yl)-5-methylbenzo[d]thiazol-6-yl)-2-tert-butoxyacetic acid] | 6.21 |
